Reference: PMC6658998, “Pharmacological characterization of the seven human NOX isoforms and their inhibitors” (Redox Biology, 2019)

Tests used:
human NOX4 = molecular target: T1, human NOX4 (Homo sapiens, UniProt Q9NPH5); test: WST-1 O2•- detection in tetracycline-induced NOX4 HEK293 T-REx cells; format: cell-based; conditions: WST-1, tetracycline 1 μg/mL 24 h
T1 sequence (Q9NPH5 1-578): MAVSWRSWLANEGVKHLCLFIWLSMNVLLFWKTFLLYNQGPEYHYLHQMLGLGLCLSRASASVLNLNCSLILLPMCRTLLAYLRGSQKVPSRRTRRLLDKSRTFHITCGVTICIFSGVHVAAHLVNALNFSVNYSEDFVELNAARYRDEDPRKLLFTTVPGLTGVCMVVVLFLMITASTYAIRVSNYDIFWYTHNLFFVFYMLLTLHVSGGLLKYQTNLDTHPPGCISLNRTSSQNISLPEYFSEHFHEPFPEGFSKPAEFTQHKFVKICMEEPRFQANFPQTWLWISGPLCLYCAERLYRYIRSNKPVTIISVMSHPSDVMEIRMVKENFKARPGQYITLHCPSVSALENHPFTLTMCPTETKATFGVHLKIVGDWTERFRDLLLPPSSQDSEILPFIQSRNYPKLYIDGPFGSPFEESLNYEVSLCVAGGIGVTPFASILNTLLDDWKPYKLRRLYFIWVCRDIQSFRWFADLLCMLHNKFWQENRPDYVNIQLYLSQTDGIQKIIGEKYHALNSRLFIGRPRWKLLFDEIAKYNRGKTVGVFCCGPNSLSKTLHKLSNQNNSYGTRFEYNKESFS
T1 sequence (P13498 1-195 partner): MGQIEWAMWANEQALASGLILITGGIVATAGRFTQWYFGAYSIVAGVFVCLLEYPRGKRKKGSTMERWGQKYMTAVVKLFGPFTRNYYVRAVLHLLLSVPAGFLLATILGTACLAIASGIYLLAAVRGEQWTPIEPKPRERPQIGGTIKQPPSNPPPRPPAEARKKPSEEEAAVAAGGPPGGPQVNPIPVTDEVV

in vitro [1] = conditions: human
NOX2 = molecular target: T2, NOX2 (Homo sapiens, UniProt P04839); test: WST-1 O2•- detection in differentiated PLB-985 cells (NOX2)
T2 sequence (P04839 2-570 limits assumed): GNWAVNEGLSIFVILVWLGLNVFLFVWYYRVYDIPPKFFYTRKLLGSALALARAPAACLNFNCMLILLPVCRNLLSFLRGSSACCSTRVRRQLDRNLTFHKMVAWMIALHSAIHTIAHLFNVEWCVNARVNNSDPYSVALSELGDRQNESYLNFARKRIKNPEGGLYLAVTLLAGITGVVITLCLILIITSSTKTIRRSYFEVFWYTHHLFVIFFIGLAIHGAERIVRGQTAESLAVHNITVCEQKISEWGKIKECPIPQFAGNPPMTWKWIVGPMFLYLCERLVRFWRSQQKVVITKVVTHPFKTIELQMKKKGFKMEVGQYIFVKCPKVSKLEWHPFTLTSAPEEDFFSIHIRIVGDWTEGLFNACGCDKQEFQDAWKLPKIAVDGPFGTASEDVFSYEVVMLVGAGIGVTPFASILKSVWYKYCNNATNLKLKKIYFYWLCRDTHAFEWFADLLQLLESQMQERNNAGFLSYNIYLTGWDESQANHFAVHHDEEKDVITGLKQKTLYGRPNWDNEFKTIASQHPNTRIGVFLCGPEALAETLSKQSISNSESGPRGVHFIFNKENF
T2 sequence (P13498 1-195 partner): T1 sequence (P13498 1-195 partner)

[2] = DPPH free radical scavenging assay (absorbance); conditions: cell-free, DPPH in methanol, 15 min; read-out: Scavenging effect IC50 Absorbance DPPH
in vitro [3] = conditions: human; remark: listed apart in the source

IC50 (human NOX4) [µM] | IC50 (NOX2) [µM] | IC50 [2] [µM] | Compound | CC50 at 1 h (in vitro [1]) [µM] | CC50 at 1 h (in vitro [3]) [µM] | CC50 at 1 h (in vitro [1]; PLB-985 cells) [µM] | CC50 at 1 h (in vitro [3]; HEK/T-REx cells) [µM]
> 50 | > 50 | > 50 | COc1cc(C(C)=O)ccc1O [Apocynin, apocynin] | > 50 | > 50 |  | 
> 50 | > 50 | > 50 | COc1cc(C(C)=O)cc(-c2cc(C(C)=O)cc(OC)c2O)c1O [Diapocynin, diapocynin] |  |  | > 50 | > 50
> 50 | > 50 | 21.7 | Cc1c2c(=O)n(-c3ccccc3Cl)[nH]c2cc(=O)n1Cc1ccccn1 [GKT136901] |  |  | > 50 | > 50

Compound | IC50 (human NOX4) [µM] | IC50 (NOX2) [µM] | IC50 [2] [µM] | CC50 at 1 h (in vitro [1]) [µM] | CC50 at 1 h (in vitro [3]) [µM] | CC50 at 1 h (in vitro [1]; PLB-985 cells) [µM] | CC50 at 1 h (in vitro [3]; HEK/T-REx cells) [µM]
c1ccc2c(c1)[I+]c1ccccc1-2 [DPI, diphenylene iodonium chloride] |  |  | > 50 | > 50 | > 50 |  | 
O=c1c2ccccc2[se]n1-c1ccccc1 [Ebselen, ebselen] |  |  | > 50 |  |  | 3.1 | 1.8
